Holding throughout (assay): DTP human tumour cell line panel, 48 h
In test [1] the test system is HCT-15.
In test [2] the test system is SK-MEL-5.
Test [3] relates to OVCAR-8.
Test [4] has as its system OVCAR-3.
In test [5] the test system is OVCAR-4.
Test [6] deals with SK-OV-3.
Test [7] has as its system HOP-92.
Test [8] concerns KM12.
Test [9] has as its system UACC-62.
Test [10] deals with HCT-116.
For test [11], the system named is NCI-H23.
The test system of test [12] is UACC-257.
Test [13] relates to HOP-62.
The subject of test [14] is SNB-75.
The subject of test [15] is Malme-3M.
Test [16] deals with A549.
The test system of test [17] is ACHN.
The test system of test [18] is SN12C.
Test [19] relates to SK-MEL-28.
For test [20], the system named is 786-0.

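Step 1: Grow cells in 96-well plates. Step 2: Expose to compound for 48 hours at 5 concentrations. Step 3: Interpolate endpoints linearly; if unreached, use highest concentration. GI50 = concentration required for 50% inhibition of growth.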 Active and inactive are the calls of the source. No stated cut-off is given here; in the data, active = GI50 up to about 1.1 µM and inactive = higher.

This note sets out measurements from ChEMBL document CHEMBL1201862, “PubChem BioAssay data set” (2004).

As usually defined, the GI50 is the concentration giving 50% growth inhibition.

Regarding `CCCSc1nc(COC(=O)NC)c(COC(=O)NC)n1C`, the GI50 in test [1] was > 83 µM; in test [2] it was > 100 µM (inactive); in test [3], > 100 µM (inactive); in [4] it was > 100 µM (inactive); in test [5], > 100 µM (inactive); in [6], > 100 µM (inactive). Further, the GI50 was > 71 µM (inactive) in test [7]; > 100 µM (inactive) in [8]; > 100 µM (inactive) in test [9]; > 100 µM (inactive) in [10]; > 78.5 µM (inactive) in [11]; > 100 µM (inactive) in test [12]. Also, the GI50 was > 100 µM (inactive) in test [13], > 91.2 µM (inactive) in test [14], > 100 µM (inactive) in test [15] and > 100 µM (inactive) in test [16].

As for `CC(=O)c1nccc2c1c(C)nc1ccccc12`, the GI50 is > 100 µM (inactive) in [17]; 58.9 µM in [1]; 60.8 µM (inactive) in test [2]; 72.6 µM (inactive) in test [3]; > 100 µM (inactive) in test [4]; 32.7 µM (inactive) in test [18]. For the same compound, the GI50 was > 100 µM (inactive) in [5]; > 100 µM (inactive) in [6]; 25.8 µM (inactive) in [7]; 38.7 µM (inactive) in [8]; 53.7 µM (inactive) in [9]; > 100 µM (inactive) in test [19]. The GI50 in [10] is 64.3 µM (inactive); in test [11], 79.8 µM (inactive); in [12], > 100 µM (inactive); in test [13], 69.8 µM (inactive); in [14], > 100 µM (inactive); in [15], > 100 µM (inactive). Besides, the GI50 in [16] is 65 µM (inactive).

Take `CC(NC(=O)c1ccc(OP(=O)(OCC2=CC(=O)c3ccccc3C2=O)N(C)CCCCCl)cc1)c1ccc(OCC2CCCCC2)c(C(N)=O)c1` (stereo not given): the GI50 in test [17] was 12.7 µM (inactive); in test [1] it was 12.2 µM; in test [2], 0.328 µM (active); in test [3], 13.4 µM (inactive); in test [4], 1.41 µM (inactive); in test [18], 13.4 µM (inactive). In addition, the GI50 in test [6] is 15.4 µM (inactive); in test [7], 0.0244 µM (active); in test [8], 12 µM (inactive); in test [9], 9.64 µM (inactive); in test [19] it was 14.2 µM (inactive); in test [20] it was 14.6 µM (inactive). In addition, the GI50 in [10] was 14.3 µM (inactive); in test [11] it was 2.7 µM (inactive); in test [12] it was 4.59 µM (inactive); in test [13], 18 µM (inactive); in test [14], 0.0122 µM (active); in test [15], 1.88 µM (inactive). Besides, the GI50 in test [16] was 1.67 µM (inactive).

Consider `CC1(C)C2CCC3(OCCO3)C1C1OC12` (stereo not given), for which the GI50 is > 100 µM (inactive) in [17]; > 100 µM in test [1]; > 100 µM (inactive) in test [2]; > 100 µM (inactive) in test [3]; > 100 µM (inactive) in test [4]; > 100 µM (inactive) in test [5]. For the same compound, the GI50 in test [6], in test [7], in test [8], in test [19], in [20] and in test [10] was > 100 µM (inactive) throughout. For the same compound, the GI50 in test [11] was > 100 µM (inactive); in test [12] it was > 100 µM (inactive); in [14], 41.4 µM (inactive); in test [15], > 100 µM (inactive); in test [16], > 100 µM (inactive).

For the compound `CCOC(=O)c1nc2ccc(C(F)(F)F)cc2nc1NCc1ccc(Cl)c(Cl)c1`, the GI50 in test [17] was 22.5 µM (inactive); in test [1] it was 36.1 µM; in test [2], 31.9 µM (inactive); in [3] it was 37.1 µM (inactive); in [4], 23.3 µM (inactive); in [5], 21 µM (inactive). Further, the GI50 in [6] is 35.2 µM (inactive); in test [7], 14.6 µM (inactive); in test [8], 28.7 µM (inactive); in [9] it was 30 µM (inactive); in test [20], 25.1 µM (inactive); in [10] it was 27 µM (inactive). The GI50 in test [11] is 40 µM (inactive); in test [12], 42.4 µM (inactive); in [13], 21.1 µM (inactive); in test [14], 14 µM (inactive); in [15], 21.8 µM (inactive); in test [16], 35.2 µM (inactive).

`CNNC(=NS(=O)(=O)c1cc(C#N)c(NNC)cc1S)NNC`: the GI50 in test [17] was > 10 µM (inactive); in test [1] it was > 10 µM; in [2], > 10 µM (inactive); in test [3], > 10 µM (inactive); in [4] it was > 10 µM (inactive); in [18] it was > 10 µM (inactive). In addition, the GI50 in test [5], in [6], in test [7], in [8], in test [19] and in test [20] was > 10 µM (inactive) in each case. Also, the GI50 in [10], in [11], in [12], in test [13], in test [14] and in [15] was > 10 µM (inactive) each time. For the same compound, the GI50 in test [16] is > 10 µM (inactive).

Take `CC(C)(C)c1ccc(-n2c3nc(=O)n(-c4ccccc4CO)c(=O)c-3cc3ccccc32)cc1`: the GI50 in test [17] is 69.7 µM (inactive); in test [1], 48.4 µM; in [2], 38.9 µM (inactive); in [3] it was 55.3 µM (inactive); in [18], 57.7 µM (inactive); in test [5], 49 µM (inactive). Moreover, the GI50 is 36.8 µM (inactive) in test [7]; 37.7 µM (inactive) in test [8]; 26.8 µM (inactive) in [9]; 38.7 µM (inactive) in test [19]; 87.1 µM (inactive) in test [20]; 38.4 µM (inactive) in test [10]. In addition, the GI50 in test [11] was 53.1 µM (inactive); in [12], 30.5 µM (inactive); in test [14] it was 26.2 µM (inactive); in test [15], > 100 µM (inactive); in test [16] it was 76.2 µM (inactive).

In the case of `Cc1ccc(-c2nnc3s/c(=C\c4ccc(N(C)C)cc4)c(=O)n23)cc1`, the GI50 in [17], in test [2], in test [3], in [4], in test [18] and in test [5] was > 100 µM (inactive) each time. Also, the GI50 in test [6], in [7], in test [8], in [9], in test [19] and in test [20] was > 100 µM (inactive) throughout. Further, the GI50 in test [10] is > 100 µM (inactive); in [11], > 100 µM (inactive); in test [12] it was 11.7 µM (inactive); in test [13], > 100 µM (inactive); in test [14], 65.2 µM (inactive); in test [15], > 100 µM (inactive). The GI50 in [16] was > 100 µM (inactive).

Turning to `O=S(=O)(N/N=C/c1c(Cl)cccc1Cl)c1ccccc1`, the GI50 in [1] is > 100 µM; in test [2] it was > 100 µM (inactive); in [3] it was > 100 µM (inactive); in [4] it was > 100 µM (inactive); in [18], > 100 µM (inactive); in test [5], > 100 µM (inactive). In addition, the GI50 in [6] was > 100 µM (inactive); in test [7], > 100 µM (inactive); in test [8], > 100 µM (inactive); in test [9], 97.7 µM (inactive); in test [19], > 100 µM (inactive); in [10] it was > 100 µM (inactive). Further, the GI50 in [11] was > 100 µM (inactive); in test [12], > 100 µM (inactive); in [13], > 100 µM (inactive); in test [14], 31.3 µM (inactive); in [15], > 100 µM (inactive); in [16], > 100 µM (inactive).

For `CC1(C)OCC[C@@H]1[Si](C)(C)C`, the GI50 in test [17] was 27.5 µM (inactive); in test [1] it was 32.4 µM; in [2], 26.9 µM (inactive); in test [3], > 100 µM (inactive); in test [4], 71.9 µM (inactive); in [18] it was > 100 µM (inactive). Further, the GI50 is 55.3 µM (inactive) in test [5]; > 100 µM (inactive) in test [6]; 55.8 µM (inactive) in test [7]; > 100 µM (inactive) in test [8]; 24.5 µM (inactive) in test [9]; 84.7 µM (inactive) in test [19]. The GI50 in test [20] is > 100 µM (inactive); in test [10], 92.7 µM (inactive); in test [11], 53.6 µM (inactive); in test [12], > 100 µM (inactive); in test [14], 52.1 µM (inactive); in test [15], > 100 µM (inactive). Also, the GI50 in [16] is > 100 µM (inactive).

Regarding `Cc1ccc([N+](=O)[O-])cc1S(=O)(=O)Nc1ccc(C2=NN(c3ccc([N+](=O)[O-])cc3[N+](=O)[O-])C(c3ccccc3)C2)cc1` (stereo not given), the GI50 in [17] was 17.6 µM (inactive); in [1] it was 14.6 µM; in test [2], 11.9 µM (inactive); in test [3], 17 µM (inactive); in test [4] it was 14.2 µM (inactive); in test [18] it was 17.2 µM (inactive). Also, the GI50 is 19.8 µM (inactive) in [5]; 21 µM (inactive) in test [6]; 14.8 µM (inactive) in [7]; 18.3 µM (inactive) in test [8]; 34.5 µM (inactive) in test [19]; 15.4 µM (inactive) in [20]. The GI50 in test [10] was 13 µM (inactive); in [11], 14.6 µM (inactive); in test [12], 16.2 µM (inactive); in test [13] it was 15.5 µM (inactive); in test [14] it was 22.5 µM (inactive); in test [15], 17.9 µM (inactive). Moreover, the GI50 in test [16] is 19.1 µM (inactive).
